Laboratory results: patent US5981517A, “Androstene derivatives” (priority 1997, dated 1999)

System: forearm of a human volunteer
Experiment: Further human vasoconstriction testing, Method 2
Assay type: in vivo
Set-up: key: +: "positive" (pallor could be observed); -: "negative" (pallor could not be detected)
Procedure: The mixtures, in 20 μL amounts, were applied to circular patches (1/4 inch diameter). The patches were applied to the forearm of a human volunteer, and covered with a water impervious film for 3 hr. Vasoconstriction activity was judged by the appearance of pallor at various time points after the patches were removed. Tests were performed on the same person and the results were obtained from 2-4 observations.
In TABLE XIV above, "-" means a negative result was obtained. In other tables herein, "-" means not tested.
In TABLE XIV above, the results of a simpler method of judging vasoconstriction activity was used in which only "positive" (pallor could be observed) or "negative" (pallor could not be detected) results were recorded.

## COC(=O)[C@@]1(OC(=O)CCl)[C@H](C)C[C@H]2[C@@H]3CCC4=CC(=O)C=C[C@]4(C)[C@@]3(F)[C@@H](O)C[C@@]21C [S]
4 Hours, 0.01 mM
  Vasoconstriction activity: -
4 Hours, 0.05 mM
  Vasoconstriction activity: -
4 Hours, 0.1 mM
  Vasoconstriction activity: -
4 Hours, 0.5 mM
  Vasoconstriction activity: -
4 Hours, 1 mM
  Vasoconstriction activity: -
4 Hours, 5 mM
  Vasoconstriction activity: -

## CCOC(=O)[C@@]1(OC(=O)CCl)[C@H](C)C[C@H]2[C@@H]3CCC4=CC(=O)C=C[C@]4(C)[C@@]3(F)[C@@H](O)C[C@@]21C [T]
4 Hours, 0.01 mM
  Vasoconstriction activity: -
4 Hours, 0.05 mM
  Vasoconstriction activity: -
4 Hours, 0.1 mM
  Vasoconstriction activity: -
4 Hours, 0.5 mM
  Vasoconstriction activity: -
4 Hours, 1 mM
  Vasoconstriction activity: -
4 Hours, 5 mM
  Vasoconstriction activity: -

## C[C@@H]1C[C@H]2[C@@H]3CCC4=CC(=O)C=C[C@]4(C)[C@@]3(F)[C@@H](O)C[C@]2(C)[C@@]1(OC(=O)C(Cl)Cl)C(=O)OCCl [K, chloromethyl 17α-dichloroacetoxy-9α-fluoro-11β-hydroxy-16α-methylandrosta-1,4-dien-3-one-17β-carboxylate]
4 Hours, 0.01 mM
  Vasoconstriction activity: -
4 Hours, 0.05 mM
  Vasoconstriction activity: -
4 Hours, 0.1 mM
  Vasoconstriction activity: -
4 Hours, 0.5 mM
  Vasoconstriction activity: -
4 Hours, 1 mM
  Vasoconstriction activity: +
4 Hours, 5 mM
  Vasoconstriction activity: +
8 Hours, 0.01 mM
  Vasoconstriction activity: -
8 Hours, 0.05 mM
  Vasoconstriction activity: -
8 Hours, 0.1 mM
  Vasoconstriction activity: +
8 Hours, 0.5 mM
  Vasoconstriction activity: +
8 Hours, 1 mM
  Vasoconstriction activity: +
8 Hours, 5 mM
  Vasoconstriction activity: +
10-22 hours, 0.01 mM
  Vasoconstriction activity: -
10-22 hours, 0.05 mM
  Vasoconstriction activity: -
10-22 hours, 0.1 mM
  Vasoconstriction activity: -
10-22 hours, 0.5 mM
  Vasoconstriction activity: +
10-22 hours, 1 mM
  Vasoconstriction activity: +
10-22 hours, 5 mM
  Vasoconstriction activity: +
24 Hours, 0.01 mM
  Vasoconstriction activity: -
24 Hours, 0.05 mM
  Vasoconstriction activity: -
24 Hours, 0.1 mM
  Vasoconstriction activity: -
24 Hours, 0.5 mM
  Vasoconstriction activity: +
24 Hours, 1 mM
  Vasoconstriction activity: +
24 Hours, 5 mM
  Vasoconstriction activity: +
